Source: patent EP0445062A1, “4(1H)Quinolone derivatives” (LABORATORIOS ALMIRALL SA, priority 1990, dated 1991)

What was measured:
[1] = Chemical Abstracts Vol. 71, 113122 a (1969); cited from earlier work
[2] = J. Het. Chem. 23, 1801 (1986); cited from earlier work
[3] = tested on: Guinea-pig isolated right ventricular strips; assay: Guinea-pig isolated right ventricular strips, increase in developed tension; set-up: species or system guinea-pigs; conditions: Cavia porcellus, stimulated at 1 Hz; for activation at 10 µM: percentage increase in developed tension at 10^-5 M, read-out: VENTRICULAR STRIP % at 10-5 M; for activation at 1 µM: percentage increase in developed tension at 10^-6M, read-out: VENTRICULAR STRIP % (10-6M)
Procedure: Guinea-pig isolated right ventricular strips
Male guinea-pigs of weight 400-500 g were killed, their hearts were removed and 2 ventricular preparations (ca 1 cm x 1 mm) cut from the right bide. There were then mounted in organ baths containing modified Krebs-Henseleit solution at 37°C and continually aereated with […]. The preparations were placed under 1 g resting tension and electrically stimulated to contract at 1 Hz whilst force of contraction was measured using an isometric force transducer (Gristwood and Owen, Br.J.Pharmacol. (1985),87,91P). Preparations were equilibrated for 60 min during which they were washed every 15 min with fresh buffer. Flosequinan and test compounds were added to the organ baths from 10^-6 to 10^-4 M concentrations and responses measured as percentage increases in developed tension.

[4] = tested on: Guinea-pig isolated tracheal rings; assay: Guinea-pig isolated tracheal rings (spontaneous tone), relaxation; set-up: species or system guinea-pigs; conditions: Cavia porcellus, concentration producing 50% relaxation, isoprenaline 10^-6 M response = 100%, read-out: TRACHEAL RING EC50
Procedure: Guinea-pig isolated tracheal rings (spontaneaus tone)
Male guinea-pigs (400-500 g) were killed, and their tracheae were removed and cut into pairs of rings. The rings were then mounted in organ baths containing Krebs-Henseleit solution at 37°C and oxygenated with […] under 1 g resting tension (Allen et al., Br.J.Pharmacol.(1986),89,395). After a 1 hour stabilization period, responses to isoprenaline 10⁻⁶ M were obtained. Tissues were then washed and after a period for restabilization (20 min) the effects of test drugs and flosequinan were investigated by adding cumulative concentrations of these to the baths.
Responses were measured as the percentage of the relaxation response to isoprenaline 10⁻⁶ M. The concentration producing a 50% relaxation taking isoprenaline responses as 100% (EC₅₀) was calculated.

[5] = tested on: Conscious renal hypertensive beagle dogs; assay: Conscious renal hypertensive beagle dogs, fall in mean blood pressure after oral dosing; assay type: in vivo; conditions: oral by gavage; for CONSC.HYPERT. DOG AUC (0-4h) (1 mg/kg): 1 mg/kg po; for CONSC.HYPERT. DOG AUC (0-4h) at mg/kg po: dose not given
Procedure: Conscious renal hypertensive beagle dogs
Male beagle dogs were made hypertensive by the method of Page (J.Amer.Med.Assoc.(1939),113,2046). Two months later, these animals were prepared with exteriorized carotid loops (Gristwood et al., Br.J.Pharmacol. (1988),93,893) three weeks before using for experimentation. Animals were fasted 17 hours before administration of flosequinan or test compounds orally. Animals were then placed in restraints and allowed to settle for 1 hour. Mean blood pressure (MBP) was measured by puncturing the carotid loop with a 18G needle attached to a pressure transducer. Drugs (suspended in 1% methylcellulose + 0.05% Tween 80) were given orally by gavage at different doses, and mean blood pressure was measured over 4 hours using a polygraph. Drug responses were measured by calculating the area under the curve of percentage fall in mean blood pressure and time (units= % fall in MBP x hours) (Allen et al., J.Clin.Pharmacol.(1982),1S-23S).

anaesthetized rats = assay: Vasodilator activity in anaesthetized rats (fall in mean blood pressure); assay type: in vivo, Wistar rats; conditions: Rattus norvegicus, iv; dose producing 30% fall in mean blood pressure; i.v. bolus injection; read-out: MAN BP IN THE ANAESTH. RAT ED30
Procedure: Vasodilator activity in anaesthetized rats
Male Wistar rats of weight range 300-400 g were anaesthetized with pentobarbital (60 mg/kg i.p.). The trachea was canulated to permit artificial respiration. A carotid artery and a jugular vein were cannulated to permit recording of mean arterial blood pressure and i.v. administration of drugs respectively.
Following a period of stabilisation (20 min), flosequinan or test drugs were administered by bolus injection and falls in mean blood pressure recorded. Responses were measured as the percentage fall in blood pressure over control, calculating the dose that produced an effect of 30% (ED₃₀).

male Swiss mice = assay: Acute toxicity in mice; assay type: in vivo; conditions: intraperitoneal, deaths after 48 hours, doses up to 300 mg/kg
Procedure: Acute toxicity of each compound was determined in groups of 5 male Swiss mice per dose. Administration of flosequinan and test compounds was made by the intraperitoneal route up the dose of 300 mg/kg. After 48 hours the number of deaths was noted and the dose producing 100% of deaths (LD₁₀₀) was calculated.

Compound	pharmacological activities [1]	antibacterial activity [2]	activation at 10 µM [3]	EC50 [4]	CONSC.HYPERT. DOG AUC (0-4h) (1 mg/kg) [5]	ED30 (anaesthetized rats)	LD100 IN MICE (male Swiss mice)	activation at 1 µM [3]	CONSC.HYPERT. DOG AUC (0-4h) at mg/kg po [5]	activation at 100 µM ([3]; percentage increase in developed tension at 10^-4M, read-out: VENTRICULAR STRIP % (10-4M))
Cn1cc(N)c(=O)c2ccccc21 [1-methyl-3-amino-4(1H)quinolone]	no appreciable pharmacological activities	–	–	–	–	–	–	–	–	–
CCn1cc(NS(C)(=O)=O)c(=O)c2cc(F)c(Cl)cc21 [A]	–	does not exhibit any interesting antibacterial activity	–	–	–	–	–	–	–	–
Cn1cc(NS(C)(=O)=O)c(=O)c2ccccc21 [Compound 1, 1-methyl-3-methylsulfonamido-4(1H) quinolone]	–	–	82%	240 nM	54 (1 mg/kg) % fall in MBP x hours	0.02 mg/kg	>300 mg/kg ip	–	–	–
Cn1cc(NS(C)(=O)=O)c(=O)c2cc(F)ccc21 [Compound 3, 1-methyl-3-methylsulfonylamino-6-fluoro-4(1H)quinolone]	–	–	53%	600 nM	51 (1 mg/kg) % fall in MBP x hours	0.06 mg/kg	>300 mg/kg ip	–	–	–
Cn1cc(NS(C)(=O)=O)c(=O)c2ccc(Cl)cc21 [Compound 4, 1-methyl-3-methylsulfonylamino-7-chloro-4(1H)quinolone]	–	–	–	500 nM	–	0.01 mg/kg	>300 mg/kg ip	55%	68 % fall in MBP x hours	–
Cn1cc(NS(C)(=O)=O)c(=O)c2ccc(C(F)(F)F)cc21 [Compound 5]	–	–	–	420 nM	–	0.03 mg/kg	>300 mg/kg ip	35%	–	–
Cn1cc(NS(C)(=O)=O)c(=O)c2ccc(F)cc21 [Compound 6, 1-methyl-3-methylsulfonylamino-7-fluoro-4(1H)quinolone]	–	–	86%	360 nM	–	0.01 mg/kg	>300 mg/kg ip	–	65 % fall in MBP x hours	–
COc1ccc2c(c1)c(=O)c(NS(C)(=O)=O)cn2C [Compound 11]	–	–	52%	1600 nM	–	0.05 mg/kg	>300 mg/kg ip	–	–	–
Cn1cc([S+](C)[O-])c(=O)c2ccc(F)cc21 (centres unmarked) [FLOSEQUINAN, 7-fluoro-1-methyl-3-methylsulfinyl-4(1H)quinolone, reference compound]	–	–	–	3000 nM	–	0.2 mg/kg	300 mg/kg ip	–	41 % fall in MBP x hours	75%
